According to ChEMBL document CHEMBL5465560, “Selectivity Literature for EUbOPEN Chemogenomic Library” (2024):

Key:
[1] = target: cGMP-inhibited 3',5'-cyclic phosphodiesterase 3A (Homo sapiens, UniProt Q14432); test: Selectivity interaction (Panel of non-epigenetic targets (kinases, GPCRs, ion channels, and transporters, Eurofins) ) EUB0000271b PDE3A; details: at 1 µM
[2] = target: Mitogen-activated protein kinase 6 (Homo sapiens) (UniProt Q16659); details: at 10 µM
[3] = target: Phosphorylase b kinase gamma catalytic chain, skeletal muscle/heart isoform (Homo sapiens) (UniProt Q16816); test: Selectivity interaction (Ambit KINOMEscan and KiNATiv profiling in Jurkat cells) EUB0000090b PHKG1; format: cell-based; details: at 1 µM
[4] = target: Cyclin-dependent kinase 8 (Homo sapiens, UniProt P49336); test: Selectivity interaction (KinomeScan (DiscoverX)) EUB0001079a CDK8; details: at 1 µM
[5] = target: Tyrosine-protein kinase BTK (Homo sapiens, UniProt Q06187); test: Selectivity interaction (Millipore kinase profiler) EUB0000124b BTK; details: at 10 µM
[6] = target: Calcium/calmodulin-dependent protein kinase type II subunit delta (Homo sapiens) (UniProt Q13557); test: Selectivity interaction (KinomeScan (DiscoverX)) EUB0000618a CAMK2D; details: at 10 µM
[7] = target: T1, Uncharacterized serine/threonine-protein kinase SBK3 (Homo sapiens) (UniProt P0C264); test: Selectivity interaction (KinomeScan (DiscoverX)) EUB0000618a SBK3; details: at 10 µM
T1 sequence (whole entry): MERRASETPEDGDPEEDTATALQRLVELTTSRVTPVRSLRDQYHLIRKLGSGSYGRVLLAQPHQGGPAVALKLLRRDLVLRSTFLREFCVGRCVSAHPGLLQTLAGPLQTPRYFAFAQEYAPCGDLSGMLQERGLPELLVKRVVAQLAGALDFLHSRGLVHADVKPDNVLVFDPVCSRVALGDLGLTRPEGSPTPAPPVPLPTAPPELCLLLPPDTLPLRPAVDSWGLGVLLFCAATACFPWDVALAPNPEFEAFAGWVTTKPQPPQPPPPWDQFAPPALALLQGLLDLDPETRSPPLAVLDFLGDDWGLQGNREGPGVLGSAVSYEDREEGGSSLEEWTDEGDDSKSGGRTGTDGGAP

[8] = target: Serine/threonine-protein kinase MRCK gamma (Homo sapiens) (UniProt Q6DT37); test: Selectivity interaction (KinomeScan (DiscoverX)) EUB0000618a CDC42BPG; details: at 10 µM
[9] = target: Rho-associated protein kinase 2 (Homo sapiens, UniProt O75116); test: Selectivity interaction (SelectScreen profiling (Invitrogen)) EUB0000607a ROCK2; details: at 2 µM
[10] = target: Serine/threonine-protein kinase SIK1 (Homo sapiens) (UniProt P57059); test: Selectivity interaction (KinomeScan (DiscoverX)) EUB0001619a SIK1; details: at 1 µM
[11] = target: T2, MAP kinase-activated protein kinase 5 (Homo sapiens) (UniProt Q8IW41); test: Selectivity interaction (KinomeScan (DiscoverX)) EUB0000045b MAPKAPK5
T2 sequence (whole entry): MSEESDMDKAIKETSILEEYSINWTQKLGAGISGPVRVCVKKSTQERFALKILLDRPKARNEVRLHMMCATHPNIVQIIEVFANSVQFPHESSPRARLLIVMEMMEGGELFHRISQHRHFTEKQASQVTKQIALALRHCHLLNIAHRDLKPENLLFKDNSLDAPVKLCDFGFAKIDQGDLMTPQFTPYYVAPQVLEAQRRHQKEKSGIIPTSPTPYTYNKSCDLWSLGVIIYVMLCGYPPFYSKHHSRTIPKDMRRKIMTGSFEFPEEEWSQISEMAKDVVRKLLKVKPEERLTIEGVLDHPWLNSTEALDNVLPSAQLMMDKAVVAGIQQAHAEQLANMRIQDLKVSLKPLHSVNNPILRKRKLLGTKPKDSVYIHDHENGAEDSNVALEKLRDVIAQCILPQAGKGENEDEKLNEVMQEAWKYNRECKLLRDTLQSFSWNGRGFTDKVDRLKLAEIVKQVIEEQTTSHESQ

[12] = tested on: Phosphatidylinositol 4,5-bisphosphate 3-kinase catalytic subunit alpha isoform (Homo sapiens), P42336 [H1047Y]; details: at 10 µM
[13] = target: Death-associated protein kinase 2 (Homo sapiens) (UniProt Q9UIK4); details: at 10 µM
[14] = target: T3, Activin receptor type-1 (Homo sapiens) (UniProt Q04771); test: Selectivity interaction (Kinase panel (Invitrogen)) EUB0000639a ACVR1; details: at 200 nM
T3 sequence (whole entry): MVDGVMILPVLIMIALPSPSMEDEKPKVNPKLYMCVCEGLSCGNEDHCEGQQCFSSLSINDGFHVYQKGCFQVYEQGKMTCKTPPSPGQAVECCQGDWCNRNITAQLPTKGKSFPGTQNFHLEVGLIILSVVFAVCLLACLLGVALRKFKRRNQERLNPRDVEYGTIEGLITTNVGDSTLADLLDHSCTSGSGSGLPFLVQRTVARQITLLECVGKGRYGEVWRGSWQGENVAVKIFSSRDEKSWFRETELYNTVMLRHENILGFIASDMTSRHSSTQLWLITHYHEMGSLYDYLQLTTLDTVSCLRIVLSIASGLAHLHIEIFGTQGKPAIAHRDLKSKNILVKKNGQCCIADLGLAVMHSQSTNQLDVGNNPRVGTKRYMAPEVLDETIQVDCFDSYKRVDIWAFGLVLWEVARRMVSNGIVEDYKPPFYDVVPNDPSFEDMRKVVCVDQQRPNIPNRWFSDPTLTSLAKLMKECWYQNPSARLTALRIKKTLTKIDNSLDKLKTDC

[15] = target: Cyclin-dependent kinase 16 (Homo sapiens) (UniProt Q00536); test: Selectivity interaction (ActivX KiNativ screen (kinase selectivity in THP-1 cell lysates)) EUB0000639a CDK16; format: subcellular; details: lysate, at 0.01 µM
[16] = target: Serine/threonine-protein kinase 24 (Homo sapiens) (UniProt Q9Y6E0); test: Selectivity interaction (ActivX KiNativ screen (kinase selectivity in THP-1 cell lysates)) EUB0000639a STK24; format: subcellular; details: lysate, at 0.2 µM
[17] = Selectivity interaction (PWWP, WD40, and Tudor domain panel (DSLS measurements, literature)) EUB0000270b SCML2
[18] = target: Ribosomal protein S6 kinase alpha-2 (Homo sapiens) (UniProt Q15349); test: Selectivity interaction (Kinome Scan (DiscoverX)) EUB0000229b RPS6KA2; details: at 10 µM
[19] = target: Mitogen-activated protein kinase 10 (Homo sapiens, UniProt P53779); test: Selectivity interaction (ProQinase) EUB0000171b MAPK10
[20] = target: RAC-alpha serine/threonine-protein kinase (Homo sapiens, UniProt P31749); test: Selectivity interaction (Kinase panel (33PanQinase(R) Activity Assay)) EUB0000877a AKT1
[21] = target: Phosphatidylinositol 4-kinase beta (Homo sapiens, UniProt Q9UBF8); test: Selectivity interaction (KinomeScan (DiscoverX)) EUB0000695a PI4KB; details: at 100 nM
Phosphatidylinositol 4-kinase beta, sequence (Q9UBF8 2-816 limits assumed): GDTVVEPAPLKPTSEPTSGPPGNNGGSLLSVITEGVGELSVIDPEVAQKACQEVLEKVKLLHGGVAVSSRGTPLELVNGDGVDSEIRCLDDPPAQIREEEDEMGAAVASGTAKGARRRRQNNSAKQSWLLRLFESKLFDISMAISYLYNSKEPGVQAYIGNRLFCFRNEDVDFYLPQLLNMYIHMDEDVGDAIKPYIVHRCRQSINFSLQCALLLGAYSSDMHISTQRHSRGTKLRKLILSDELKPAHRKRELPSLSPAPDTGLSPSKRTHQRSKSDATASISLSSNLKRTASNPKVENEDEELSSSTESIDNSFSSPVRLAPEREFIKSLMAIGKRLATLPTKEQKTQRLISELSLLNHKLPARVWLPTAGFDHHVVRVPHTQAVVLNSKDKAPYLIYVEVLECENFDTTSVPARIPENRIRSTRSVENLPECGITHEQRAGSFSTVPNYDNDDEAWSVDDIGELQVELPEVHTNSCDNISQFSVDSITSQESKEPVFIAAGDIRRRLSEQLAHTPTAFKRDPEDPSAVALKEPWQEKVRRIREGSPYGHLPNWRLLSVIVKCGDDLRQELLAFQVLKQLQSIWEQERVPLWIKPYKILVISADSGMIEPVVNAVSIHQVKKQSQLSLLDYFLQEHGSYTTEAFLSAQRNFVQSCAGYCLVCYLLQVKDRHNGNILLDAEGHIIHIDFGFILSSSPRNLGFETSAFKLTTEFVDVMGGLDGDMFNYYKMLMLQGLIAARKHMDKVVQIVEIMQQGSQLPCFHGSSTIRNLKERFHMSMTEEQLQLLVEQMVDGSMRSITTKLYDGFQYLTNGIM

Mitogen-activated protein kinase 10, sequence (P53779 whole entry): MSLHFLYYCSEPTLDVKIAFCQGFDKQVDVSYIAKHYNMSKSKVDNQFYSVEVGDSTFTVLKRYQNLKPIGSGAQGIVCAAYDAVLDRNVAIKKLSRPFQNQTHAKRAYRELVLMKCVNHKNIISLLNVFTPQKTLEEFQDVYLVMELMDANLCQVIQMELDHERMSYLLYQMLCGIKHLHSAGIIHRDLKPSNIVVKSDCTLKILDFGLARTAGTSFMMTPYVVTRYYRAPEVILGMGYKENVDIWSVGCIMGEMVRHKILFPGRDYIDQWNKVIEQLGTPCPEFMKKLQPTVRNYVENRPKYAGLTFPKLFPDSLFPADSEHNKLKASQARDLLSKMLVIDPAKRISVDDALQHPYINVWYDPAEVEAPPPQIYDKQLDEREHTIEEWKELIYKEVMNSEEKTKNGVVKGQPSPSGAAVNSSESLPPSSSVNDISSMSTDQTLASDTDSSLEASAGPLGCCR
Phosphorylase b kinase gamma catalytic chain, skeletal muscle/heart isoform (Homo sapiens), sequence (Q16816 whole entry, looked up, canonical isoform): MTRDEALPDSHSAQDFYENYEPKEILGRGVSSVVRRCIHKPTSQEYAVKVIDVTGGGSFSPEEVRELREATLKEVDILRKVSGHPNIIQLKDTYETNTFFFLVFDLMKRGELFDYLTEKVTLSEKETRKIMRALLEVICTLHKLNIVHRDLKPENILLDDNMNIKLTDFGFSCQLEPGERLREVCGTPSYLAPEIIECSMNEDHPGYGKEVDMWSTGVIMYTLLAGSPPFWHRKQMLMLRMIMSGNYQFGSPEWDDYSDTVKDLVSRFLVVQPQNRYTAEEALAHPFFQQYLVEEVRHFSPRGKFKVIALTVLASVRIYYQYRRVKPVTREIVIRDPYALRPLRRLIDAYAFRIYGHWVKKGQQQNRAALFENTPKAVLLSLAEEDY
Serine/threonine-protein kinase 24 (Homo sapiens), sequence (Q9Y6E0 whole entry, looked up, the tested form may be a part): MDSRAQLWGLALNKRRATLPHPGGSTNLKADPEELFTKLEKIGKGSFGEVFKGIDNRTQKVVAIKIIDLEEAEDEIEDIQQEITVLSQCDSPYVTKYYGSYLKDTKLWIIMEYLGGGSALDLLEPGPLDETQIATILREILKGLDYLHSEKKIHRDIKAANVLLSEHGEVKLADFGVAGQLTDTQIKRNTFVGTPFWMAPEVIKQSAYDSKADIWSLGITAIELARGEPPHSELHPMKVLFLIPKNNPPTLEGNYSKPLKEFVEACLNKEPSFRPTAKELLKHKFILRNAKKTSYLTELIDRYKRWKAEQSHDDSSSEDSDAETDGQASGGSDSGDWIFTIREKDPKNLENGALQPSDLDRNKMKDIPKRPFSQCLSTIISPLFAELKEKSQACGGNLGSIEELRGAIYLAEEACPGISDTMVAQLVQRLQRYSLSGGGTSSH
Tyrosine-protein kinase BTK, sequence (Q06187 whole entry): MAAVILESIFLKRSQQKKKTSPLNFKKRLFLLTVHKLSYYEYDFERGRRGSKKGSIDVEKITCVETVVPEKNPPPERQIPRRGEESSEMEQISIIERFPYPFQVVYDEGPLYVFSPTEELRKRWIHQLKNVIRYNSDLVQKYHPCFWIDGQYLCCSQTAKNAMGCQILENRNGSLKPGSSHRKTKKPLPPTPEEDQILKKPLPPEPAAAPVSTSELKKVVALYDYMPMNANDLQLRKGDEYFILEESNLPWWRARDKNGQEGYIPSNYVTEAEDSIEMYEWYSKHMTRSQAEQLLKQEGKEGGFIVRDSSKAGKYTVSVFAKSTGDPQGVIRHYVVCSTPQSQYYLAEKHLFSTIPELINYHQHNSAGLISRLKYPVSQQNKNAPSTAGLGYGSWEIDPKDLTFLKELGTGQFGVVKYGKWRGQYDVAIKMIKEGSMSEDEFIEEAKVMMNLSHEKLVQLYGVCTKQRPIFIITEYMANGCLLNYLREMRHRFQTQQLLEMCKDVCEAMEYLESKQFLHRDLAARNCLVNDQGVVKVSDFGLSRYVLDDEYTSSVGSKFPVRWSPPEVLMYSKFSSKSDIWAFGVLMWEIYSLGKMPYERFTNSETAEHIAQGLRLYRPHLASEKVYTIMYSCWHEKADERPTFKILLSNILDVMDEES
cGMP-inhibited 3',5'-cyclic phosphodiesterase 3A, sequence (Q14432 whole entry): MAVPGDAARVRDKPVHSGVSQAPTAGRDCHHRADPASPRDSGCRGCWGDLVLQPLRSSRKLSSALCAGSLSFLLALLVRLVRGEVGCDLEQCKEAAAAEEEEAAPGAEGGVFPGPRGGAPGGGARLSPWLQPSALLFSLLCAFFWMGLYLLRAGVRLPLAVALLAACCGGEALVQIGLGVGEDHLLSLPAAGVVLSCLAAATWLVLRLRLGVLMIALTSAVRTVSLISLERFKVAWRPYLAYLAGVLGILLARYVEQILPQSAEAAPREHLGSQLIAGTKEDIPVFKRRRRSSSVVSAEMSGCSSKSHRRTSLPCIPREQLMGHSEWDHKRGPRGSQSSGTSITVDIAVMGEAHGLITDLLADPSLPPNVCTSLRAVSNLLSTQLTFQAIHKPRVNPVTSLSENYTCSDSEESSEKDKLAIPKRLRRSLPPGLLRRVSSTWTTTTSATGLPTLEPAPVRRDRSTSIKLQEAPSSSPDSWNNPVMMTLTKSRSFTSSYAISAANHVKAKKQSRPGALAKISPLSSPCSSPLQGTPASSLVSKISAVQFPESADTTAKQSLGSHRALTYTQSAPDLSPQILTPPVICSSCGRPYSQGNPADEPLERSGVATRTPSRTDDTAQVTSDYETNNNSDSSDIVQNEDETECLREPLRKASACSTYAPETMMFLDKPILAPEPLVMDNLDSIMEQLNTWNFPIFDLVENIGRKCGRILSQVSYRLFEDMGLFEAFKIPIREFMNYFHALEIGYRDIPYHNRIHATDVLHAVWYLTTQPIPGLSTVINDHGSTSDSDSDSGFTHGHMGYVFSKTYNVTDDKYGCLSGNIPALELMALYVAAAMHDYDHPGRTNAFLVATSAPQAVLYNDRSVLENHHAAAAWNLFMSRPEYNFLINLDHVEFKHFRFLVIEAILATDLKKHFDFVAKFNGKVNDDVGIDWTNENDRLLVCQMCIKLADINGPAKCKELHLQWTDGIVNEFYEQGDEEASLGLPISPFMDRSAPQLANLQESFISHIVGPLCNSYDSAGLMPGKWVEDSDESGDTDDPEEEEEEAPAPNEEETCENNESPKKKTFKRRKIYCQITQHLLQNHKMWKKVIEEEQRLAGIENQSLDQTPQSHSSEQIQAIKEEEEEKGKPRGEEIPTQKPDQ
Mitogen-activated protein kinase 6 (Homo sapiens), sequence (Q16659 whole entry, canonical isoform): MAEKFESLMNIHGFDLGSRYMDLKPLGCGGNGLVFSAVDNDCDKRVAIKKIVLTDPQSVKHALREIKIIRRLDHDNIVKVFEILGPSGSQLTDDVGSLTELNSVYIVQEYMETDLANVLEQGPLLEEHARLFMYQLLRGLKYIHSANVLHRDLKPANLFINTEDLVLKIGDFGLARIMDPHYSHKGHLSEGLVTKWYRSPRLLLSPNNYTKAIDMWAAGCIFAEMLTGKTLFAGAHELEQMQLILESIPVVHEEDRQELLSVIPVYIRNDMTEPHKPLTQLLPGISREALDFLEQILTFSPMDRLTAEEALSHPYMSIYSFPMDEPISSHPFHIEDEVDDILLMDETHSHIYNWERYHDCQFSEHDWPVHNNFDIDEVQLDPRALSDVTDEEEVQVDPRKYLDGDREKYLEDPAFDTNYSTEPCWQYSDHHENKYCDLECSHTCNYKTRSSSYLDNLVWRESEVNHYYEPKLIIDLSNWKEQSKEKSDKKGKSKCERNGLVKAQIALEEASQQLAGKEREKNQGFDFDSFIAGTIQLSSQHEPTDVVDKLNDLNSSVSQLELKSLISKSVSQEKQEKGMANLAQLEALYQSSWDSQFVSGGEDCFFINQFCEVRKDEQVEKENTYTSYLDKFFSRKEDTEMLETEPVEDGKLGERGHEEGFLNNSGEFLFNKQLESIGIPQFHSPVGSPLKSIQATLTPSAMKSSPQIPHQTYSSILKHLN
Death-associated protein kinase 2 (Homo sapiens), sequence (Q9UIK4 whole entry, looked up): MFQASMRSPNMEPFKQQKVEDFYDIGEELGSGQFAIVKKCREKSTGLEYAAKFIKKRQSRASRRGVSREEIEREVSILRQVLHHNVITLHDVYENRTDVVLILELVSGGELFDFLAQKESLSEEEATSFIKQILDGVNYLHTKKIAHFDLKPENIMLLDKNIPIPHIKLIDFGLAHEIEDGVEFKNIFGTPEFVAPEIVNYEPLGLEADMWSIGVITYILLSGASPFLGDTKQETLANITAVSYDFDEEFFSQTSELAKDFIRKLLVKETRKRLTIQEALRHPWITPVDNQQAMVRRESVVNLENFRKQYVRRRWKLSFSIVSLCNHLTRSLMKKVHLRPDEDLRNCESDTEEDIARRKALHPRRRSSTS

For `Cc1cc(C)cc([C@@H]2c3cc(C)ccc3NC(=O)CN2C(=O)c2ccc(Br)s2)c1`, the % of inhibition [1] was -11%.
For `CCN(CC)CCCCNc1ncc2cc(-c3cc(OC)cc(OC)c3)c(NC(=O)NC(C)(C)C)nc2n1`, the % of control [2] was 100%.
In the case of `CN(C)C/C=C/C(=O)Nc1ccc(C(=O)N2CCCC(Nc3ncc(Cl)c(-c4c[nH]c5ccccc45)n3)C2)cc1` (stereo not drawn), the % of control [3] is reported as 87%.
Work on `Nc1cnc(N2CCc3cc(S(=O)(=O)Nc4c(F)cc(Cl)cc4F)cc(N4CCCC4=O)c32)nc1` [TP-020n] yielded a % of control [4] of 100%.
With `CC(=O)Nc1cccc(-n2c(=O)n(C3CC3)c(=O)c3c(Nc4ccc(I)cc4F)n(C)c(=O)c(C)c32)c1` the % of control [5] was 104%.
With `O[C@H]1CC[C@H](Nc2ncc3nc(Nc4c(F)cc(F)cc4F)n([C@H]4CCOC4)c3n2)CC1` the % of control [6] was 76%, the % of control [7] was 100% and the % of control [8] was 81%.
In the case of `CNC(=O)Nc1ccc(-c2nc(N3CC4CCC(C3)O4)c3cnn(C4CCC5(CC4)OCCO5)c3n2)cc1`, the % of inhibition [9] is reported as 5%.
In the case of `N#Cc1cccc(-c2c[nH]c3ncnc(N4CCOCC4)c23)c1`, the % of control [10] is reported as 84%.
`C=CC(=O)Nc1cc(-n2c(=O)ccc3cnc4ccc(-c5ccc(NS(C)(=O)=O)cc5)cc4c32)ccc1C` gave a % of control ([11]; at 1 µM) of 100% and a % of control ([11]; at 10 µM) of 100%.
Compound `COCC(=O)NC/C=C/c1ccc2ncnc(Nc3ccc(Oc4ccc(C)nc4)c(C)c3)c2c1` [CP-724714] has a % of control [12] of 47%.
Compound `Cc1cc([C@@H](C)Nc2ccccc2C(=O)O)c2nc(N3CCOCC3)cc(=O)n2c1` [AZD-6482] has a % of control [13] of 92%.
Compound `CC[C@@H]1[C@H](F)C(=O)N[C@@H]1COc1nccc2cc(C(N)=O)c(OC)cc12` [ZIMLOVISERTIB] has a % of inhibition [14] of 25.7%, a % of inhibition [15] of -0.6% and a % of inhibition [16] of 5.6%.
In the case of `Cc1cc(CN)cc(C)c1-c1ncn(C)c1-c1cncn1C`, the dTagg [17] is reported as 0.2 K.
In the case of `COc1cc(N(C)c2ccnc3ccc(C(F)(F)F)cc23)cc(OC)c1OC`, the % binding [18] is reported as 84%.
In the case of `C=CC(=O)Nc1cccc(C(=O)Nc2ccc(Nc3cc(-c4[nH]c(SC)nc4C)ccn3)cc2)c1`, the % of control ([19]; at 1 µM) is reported as 3% and the % of control ([19]; at 5 µM) is reported as 0%.
With `CCC(=O)N1CC[C@H](Nc2ncnc3c2CN(c2cnc(OC)c(C(F)(F)F)c2)CC3)C1` [LENIOLISIB] the IC50 [20] was > 10 µM.
`Cc1cc(F)c(C(=O)Nc2cccc(-c3nncn3C(C)C)n2)cc1-n1cnc(C2CC2)c1` gave a % of control [21] of 100%.
